What all share (assay type): cell-based
One assay addresses T1, humanP2X7 (Homo sapiens, UniProt Q99572).
T1 construct: expressed in transfected cells; host or cells: HEK-293
T1 sequence (Q99572 1-595): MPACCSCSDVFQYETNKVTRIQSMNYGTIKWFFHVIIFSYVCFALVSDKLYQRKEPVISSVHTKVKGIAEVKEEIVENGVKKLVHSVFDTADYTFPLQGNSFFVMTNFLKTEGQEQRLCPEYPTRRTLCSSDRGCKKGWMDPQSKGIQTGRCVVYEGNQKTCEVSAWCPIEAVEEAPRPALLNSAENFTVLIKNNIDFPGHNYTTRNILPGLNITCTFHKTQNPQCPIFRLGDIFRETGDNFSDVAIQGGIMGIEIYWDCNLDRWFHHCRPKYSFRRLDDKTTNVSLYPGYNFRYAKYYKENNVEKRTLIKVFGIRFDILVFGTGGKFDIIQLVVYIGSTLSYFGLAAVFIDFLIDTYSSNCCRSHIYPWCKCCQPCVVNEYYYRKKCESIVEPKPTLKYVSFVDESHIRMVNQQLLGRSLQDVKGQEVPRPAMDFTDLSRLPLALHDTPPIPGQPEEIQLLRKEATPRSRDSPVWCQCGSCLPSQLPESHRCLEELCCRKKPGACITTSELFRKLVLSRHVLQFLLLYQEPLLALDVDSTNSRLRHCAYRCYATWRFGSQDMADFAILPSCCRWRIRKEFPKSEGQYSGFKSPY
The assay is described as follows: P2X7 channel calcium-influx assay (Fluo-8, FLIPR TETRA), human P2X7. The note with it: HEK-293 cells stably transfected with P2X7; Bz-ATP at EC80; low divalent cation buffer; read-out: humanP2X7 (activity range). The procedure: (§1) Extracellular binding of Bz-ATP to P2X7 receptor opens the channel and allows Ca^2+ influx into the cells. This Ca^2+ entry was measured in HEK-293 cells stably transfected with P2X7 receptor using Screen Quest™ Fluo-8 No Wash Calcium Assay Kit (AAt Bioquest®, cat. 36316). Once inside the cell, the lipophilic blocking groups of Fluo-8 are cleaved by non-specific cell esterases, resulting in a negatively-charged fluorescent dye that stays inside cells. Its fluorescence increases upon binding to calcium. When HEK-293/P2X7 cells are stimulated with Bz-ATP, Ca^2+ enters the cells and the fluorescence of Fluo-8 NW increases. The dye has an absorption spectrum compatible with excitation at 488 nm by argon laser sources and its emission wavelength is in the range of 515-575 nm.
(§2) HEK-293 cells stably transfected with P2X7 receptor were seeded overnight in growth medium at 10,000 to 20,000 cells/well in 384-well plate. 24 hours later, the medium was removed, and the cells were pre-loaded at RT for 1 hour with 20 μL/w of Fluo-8 NW. Then 10 μL/w of test compounds and reference antagonist A438079 at 3×-concentration were injected with the FLIPRTETRA and the kinetic response over a period of five minutes was monitored. A second injection of 15 μL/w of 3× reference activator (Bz-ATP at EC80) was performed with the FLIPR TETRA and the signal of the emitted fluorescence was recorded for additional three minutes. All the experiment was carried out in a Low Divalent Cation Assay Buffer (0.3 mM Ca^2+ and 0 mM Mg^2+). The effect of the test compounds was measured as percent inhibition vs the reference antagonist and IC50 values were calculated accordingly. Here are reported the potency ranges as A, B, C and D, where A is <200 nM; B is 200 nM-1 μM, C is 1-10 μM, D is 10-30 μM.

The next assay concerns the target T2, ratP2X7 (Rattus norvegicus, UniProt Q64663).
T2 construct: expressed in transfected cells; host or cells: HEK-293
T2 sequence (Q64663 1-595): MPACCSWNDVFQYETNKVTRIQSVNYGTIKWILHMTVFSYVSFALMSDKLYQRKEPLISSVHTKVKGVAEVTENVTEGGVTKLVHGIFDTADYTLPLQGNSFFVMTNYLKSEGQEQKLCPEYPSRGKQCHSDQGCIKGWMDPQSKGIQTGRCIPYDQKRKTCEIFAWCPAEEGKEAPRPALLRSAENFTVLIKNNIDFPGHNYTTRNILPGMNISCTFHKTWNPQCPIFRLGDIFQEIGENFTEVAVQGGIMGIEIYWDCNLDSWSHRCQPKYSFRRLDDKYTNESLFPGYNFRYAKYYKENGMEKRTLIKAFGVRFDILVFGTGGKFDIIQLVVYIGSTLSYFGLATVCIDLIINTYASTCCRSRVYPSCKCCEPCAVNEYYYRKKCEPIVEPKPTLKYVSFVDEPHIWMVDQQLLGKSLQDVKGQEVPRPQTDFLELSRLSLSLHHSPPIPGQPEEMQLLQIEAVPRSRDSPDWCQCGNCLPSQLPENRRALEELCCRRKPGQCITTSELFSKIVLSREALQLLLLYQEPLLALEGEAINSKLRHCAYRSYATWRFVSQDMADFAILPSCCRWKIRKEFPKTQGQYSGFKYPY
The assay is described as follows: P2X7 channel calcium-influx assay (Fluo-8, FLIPR TETRA), rat P2X7. The note with it: HEK-293 cells stably transfected with P2X7; Bz-ATP at EC80; low divalent cation buffer; read-out: ratP2X7 (activity range). The procedure:
as §1, §2

The target of another assay is T3, mouseP2X7 (Mus musculus, UniProt Q9Z1M0).
T3 construct: expressed in transfected cells; host or cells: HEK-293
T3 sequence (Q9Z1M0 1-595): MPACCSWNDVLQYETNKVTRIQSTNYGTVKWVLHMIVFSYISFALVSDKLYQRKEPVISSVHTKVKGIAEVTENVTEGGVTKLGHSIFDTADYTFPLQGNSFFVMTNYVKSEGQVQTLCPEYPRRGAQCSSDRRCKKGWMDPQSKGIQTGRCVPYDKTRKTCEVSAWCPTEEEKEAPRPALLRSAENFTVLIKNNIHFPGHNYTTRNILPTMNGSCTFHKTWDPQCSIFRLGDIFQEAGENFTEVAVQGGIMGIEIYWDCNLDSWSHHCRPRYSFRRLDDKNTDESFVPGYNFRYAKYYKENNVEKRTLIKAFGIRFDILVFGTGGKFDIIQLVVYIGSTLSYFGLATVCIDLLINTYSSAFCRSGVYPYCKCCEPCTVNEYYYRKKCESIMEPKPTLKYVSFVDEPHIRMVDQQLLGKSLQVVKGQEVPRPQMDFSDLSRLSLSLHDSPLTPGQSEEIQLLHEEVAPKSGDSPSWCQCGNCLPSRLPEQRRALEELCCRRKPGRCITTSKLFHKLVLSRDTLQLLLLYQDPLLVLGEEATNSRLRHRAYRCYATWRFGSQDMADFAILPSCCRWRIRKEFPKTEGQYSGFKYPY
Nature of the assay: P2X7 channel calcium-influx assay (Fluo-8, FLIPR TETRA), mouse P2X7. To be noted: HEK-293 cells stably transfected with P2X7; Bz-ATP at EC80; low divalent cation buffer; read-out: mouseP2X7 (activity range). As for the experimental part:
as §1, §2

A further assay concerns the target T4, human P2X7 channel (Homo sapiens, UniProt Q99572).
T4 construct: expressed in transfected cells; host or cells: HEK-293
T4 sequence (Q99572 1-595): T1 sequence (Q99572 1-595)
Nature of the assay: human P2X7 channel assay by automated patch-clamp (QPatch 16X). To be noted: HEK-293 cells expressing P2X7; current evoked by 100 microM BzATP; whole-cell, held at -80 mV; read-out: human Q-Patch (activity range). The procedure: In order to directly monitor the block of P2X7 channel, an electrophysiological assay was developed and implemented on the QPatchl6X automated electrophysiology instrument.
HEK-293 cells expressing the P2X7 channels were cultured in modified EMEM.
72 hours before experiment, 5 million cells were seeded onto T225 flasks. Just before the experiment cells were washed twice, detached from the flask with trypsin-EDTA, re-suspended in the suspension solution and placed on the QPatch 16x.
The compounds (20 mM in a 100% DMSO) stored at −20° C. were prepared the day of the experiment (a first dilution 1:20 in 100% DMSO to prepare a 1 mM stock solution, then a 1 microM solution in external solution+a serial dilution 1:10).
The standard whole-cell voltage clamp experiments were performed at room temperature. From these experiments the multihole technology was used and the data were sampled at 2 KHz.
The intracellular solution contained (mM) 135 CsF, 10 NaCl, 1 EGTA, 10 HEPES, (pH 7.2 with CsOH) whereas the extracellular contained (mM) 145 NaCl, 4 KCl, 0.5 MgCl2, 1 CaCl2, 10 HEPES, 10 Glc (pH 7.4 with NaOH).
After establishment of the seal and the passage in the whole cell configuration, the cells were held at −80 mV. The P2XR7 current was evoked by applying 100 microM of BzATP alone (4 times) and then in the presence increasing concentrations of the compound under investigation (1, 10, 100 and 1000 nM).
The pre-incubation periods 5 to 8 contain increasing concentrations of the compound of interest (1, 10, 100 and 1000 nM), as illustrated in FIGURE (application protocol).
The maximal inward current evoked by BzATP in absence or presence of increasing concentrations of the compounds under investigation was measured and normalized. The potential […] effect was measured as % of control and as IC50 determined fitting the dose-response curves data with the following equation:
Here are reported the potency ranges as A, B, C and D, where A is <10 nM; B is 10 nM-100 nM, C is 0.1-1 μM, D is 1-10 μM.

As for `Cn1nc(Cc2c(F)cccc2Cl)n(Cc2ccc(F)cc2)c1=O` [Example 1, 5-(2-chloro-6-fluorobenzyl)-4-(4-fluorobenzyl)-2-methyl-2,4-dihydro-3H-1,2,4-triazol-3-one], the IC50 on humanP2X7 lay within 1 to 10 µM; on ratP2X7 it was 0.2 to 1 µM; at mouseP2X7, 1 to 10 µM.
Consider `Cn1nc(Cc2c(F)cccc2Cl)n(CC2CCCCC2)c1=O` [Example 2, 5-(2-chloro-6-fluorobenzyl)-4-(cyclohexylmethyl)-2-methyl-2,4-dihydro-3H-1,2,4-triazol-3-one], for which the IC50 is < 0.01 µM at human P2X7 channel, 0.2 to 1 µM at humanP2X7, < 0.2 µM on ratP2X7 and 0.2 to 1 µM on mouseP2X7.
In the case of `Cn1nc(Cc2c(F)cccc2Cl)n(CC2CCC(F)(F)C2)c1=O` (stereo not shown) [Example 4, 5-(2-chloro-6-fluorobenzyl)-4-((3,3-difluorocyclopentyl)methyl)-2-methyl-2,4-dihydro-3H-1,2,4-triazol-3-one], the IC50 on humanP2X7 was in the range of 0.2 to 1 µM; at ratP2X7 it was 0.2 to 1 µM; on mouseP2X7 it was 1 to 10 µM.
For the compound `Cn1nc(Cc2c(F)cccc2Cl)n(CC2CCC(F)CC2)c1=O` (stereo not shown) [Example 6, 5-(2-chloro-6-fluorobenzyl)-4-((4-fluorocyclohexyl)methyl)-2-methyl-2,4-dihydro-3H-1,2,4-triazol-3-one], the results for the IC50 at humanP2X7, on ratP2X7 and on mouseP2X7 were 0.2 to 1 µM, < 0.2 µM and 0.2 to 1 µM, respectively.
In the case of `Cn1nc(Cc2c(F)cccc2Cl)n(CC2CCC(C(F)(F)F)CC2)c1=O` (stereo not shown) [Example 7, 5-(2-chloro-6-fluorobenzyl)-2-methyl-4-((4-(trifluoromethyl)cyclohexyl)methyl)-2,4-dihydro-3H-1,2,4-triazol-3-one], the IC50 on humanP2X7 is < 0.2 µM; on ratP2X7 it was < 0.2 µM; on mouseP2X7 it was 0.2 to 1 µM.
Consider `Cn1nc(Cc2ccc(F)cc2Cl)n(Cc2ccc(F)cc2)c1=O` [Example 8, 5-(2-chloro-4-fluorobenzyl)-4-(4-fluorobenzyl)-2-methyl-2,4-dihydro-3H-1,2,4-triazol-3-one], for which the IC50 at humanP2X7, at ratP2X7 and on mouseP2X7 was 1 to 10 µM throughout.
Take `Cn1nc(Cc2ccc(F)cc2Cl)n(CC2CCCCC2)c1=O` [Example 9, 5-(2-chloro-4-fluorobenzyl)-4-(cyclohexylmethyl)-2-methyl-2,4-dihydro-3H-1,2,4-triazol-3-one]: the IC50 at humanP2X7 was 0.2 to 1 µM; at ratP2X7 it was < 0.2 µM; on mouseP2X7, 0.2 to 1 µM.
For the compound `Cn1nc(Cc2ccc(F)cc2Cl)n(CC2CCC(F)(F)C2)c1=O` (stereo not shown) [Example 10, 5-(2-chloro-4-fluorobenzyl)-4-((3,3-difluorocyclopentyl)methyl)-2-methyl-2,4-dihydro-3H-1,2,4-triazol-3-one], the values for the IC50 at humanP2X7, on ratP2X7 and at mouseP2X7 were 10 to 30 µM, 0.2 to 1 µM and 1 to 10 µM, respectively.
The corresponding values for `O=c1n(CC(F)(F)F)nc(Cc2ccccc2Cl)n1CC1CCCCCC1` [Example 54, 5-[(2-chlorophenyl)methyl]-4-(cycloheptylmethyl)-2-(2,2,2-trifluoroethyl)-2,4-dihydro-3H-1,2,4-triazol-3-one] are 0.2 to 1 µM, < 0.2 µM and 0.2 to 1 µM.
As for `Cn1nc(CC2CCCCCC2)n(Cc2c(F)cccc2Cl)c1=O` [Example 59, 4-[(2-chloro-6-fluorophenyl)methyl]-5-(cycloheptylmethyl)-2-methyl-2,4-dihydro-3H-1,2,4-triazol-3-one], the IC50 on humanP2X7 was 0.2 to 1 µM; on ratP2X7 it was < 0.2 µM; at mouseP2X7, 0.2 to 1 µM.
As to `CCn1nc(Cc2ccccc2Cl)n(CC2CCCCCC2)c1=O` [Example 64, 5-[(2-chlorophenyl)methyl]-4-(cycloheptylmethyl)-2-ethyl-2,4-dihydro-3H-1,2,4-triazol-3-one], the IC50 on humanP2X7 was < 0.2 µM; at ratP2X7 it was < 0.2 µM; at mouseP2X7, 0.2 to 1 µM.
For the compound `Cn1nc(CC2CCC(F)(F)CC2)n(Cc2c(F)cccc2Cl)c1=O` [Example 71, 4-[(2-chloro-6-fluorophenyl)methyl]-5-[(4,4-difluorocyclohexyl)methyl]-2-methyl-2,4-dihydro-3H-1,2,4-triazol-3-one], the IC50 on humanP2X7 is 0.2 to 1 µM; at ratP2X7 it was 0.2 to 1 µM; at mouseP2X7, 1 to 10 µM.
